In patent US12037333B2, “Pyridopyrazine and pyridotriazine inhibitors of influenza virus replication” (priority 2018, dated 2024):

These compounds were tested on Influenza type A (strain A/PR/8/34, ATCC VR-95) (assay: Influenza antiviral assay: inhibition of virus-induced cytopathic effects (CPE) in MDCK cells, XTT dye reduction). Details: Influenza A (H1N1), strain A/PR/8/34, MDCK cells, CPE inhibition at 4 days.
Assay type: cell-based

Row | SMILES | EC50 [nM]
1 | CC1N(CC(F)F)C(=O)c2c(O)c(=O)ccn2N1C12c3ccccc3CC1Cc1c2ccc(F)c1F (centres unmarked) [Compound A136] | 375 to 500
2 | CN1CN(C23c4ccccc4CC2Cc2c3ccc(F)c2Cl)n2ccc(=O)c(O)c2C1=O (centres unmarked) [Compound A90] | 125 to 250

Same assay, conditions: Influenza A virus, H1N1 / PR/8, MDCK, 96 h, strain A/PR/8/34, MDCK cells, CPE inhibition at 4 days

Row | SMILES | EC50 [nM]
3 | COCCN1C(=O)c2c(O)c(=O)ccn2N(C23c4ccccc4CC2Cc2c3ccc(F)c2F)C1C (centres unmarked) [Compound A113] | 125 to 250
4 | O=C1c2c(O)c(=O)ccn2N(C23c4cccc(F)c4CC2Cc2c(F)cccc23)CN1CCCF (centres unmarked) [Compound A72] | < 125
5 | CCCN1CN(C23c4cccc(F)c4CC2Cc2c(F)cccc23)n2ccc(=O)c(O)c2C1=O (centres unmarked) [Compound A153] | < 125
6 | CCN1CN(C23c4ccccc4CC2Cc2c(Cl)cccc23)n2ccc(=O)c(O)c2C1=O (centres unmarked) [Compound A55] | < 125
7 | O=C1c2c(O)c(=O)ccn2N(C23c4cccc(F)c4CC2Cc2c(F)cccc23)CN1CC1CC1 (centres unmarked) [Compound A76] | < 125
8 | CC(C)CN1C(=O)c2c(O)c(=O)ccn2N(C23c4ccccc4CC2Cc2c3ccc(F)c2F)C1C (centres unmarked) [Compound A127] | > 500
9 | CCN1CN(C23c4cccc(F)c4CC2(C)Cc2c(F)cccc23)n2ccc(=O)c(O)c2C1=O (centres unmarked) [Compound A51] | < 125
10 | O=C1c2c(O)c(=O)ccn2N(C23c4ccccc4CC2Cc2c3ccc(F)c2F)CN1CC(F)F (centres unmarked) [Compound A84] | < 125
11 | CN1CN(C23c4ccc(F)cc4CC2Cc2cc(F)ccc23)n2ccc(=O)c(O)c2C1=O (centres unmarked) [Compound A3, 1-(2,7-Difluoro-9a,10-dihydro-9H-indeno[1,2-a]inden-4b-yl)-5-hydroxy-3-methyl-2,3-dihydro-1H-pyrido[2,1-f][1,2,4]triazine-4,6-dione] | 125 to 250
12 | CN1CN(C23c4cccc(F)c4CC2(C)Cc2c(F)cccc23)n2ccc(=O)c(O)c2C1=O (centres unmarked) [Compound A54] | < 125
13 | CN1CN(C23c4cc(F)ccc4CC2Cc2c(Cl)cccc23)n2ccc(=O)c(O)c2C1=O (centres unmarked) [Compound A96] | < 125
14 | CC1N(C)C(=O)c2c(O)c(=O)ccn2N1C12c3ccccc3CC1Cc1c2ccc(F)c1F (centres unmarked) [Compound A64] | < 125
15 | O=C1c2c(O)c(=O)ccn2N(C23c4ccccc4CC2Cc2c(F)cccc23)CN1CCF (centres unmarked) [Compound A68] | < 125
16 | CCN1CN(C23c4ccccc4CC2Cc2cc(F)c(F)cc23)n2ccc(=O)c(O)c2C1=O (centres unmarked) [Compound A10, 1-(2,3-Difluoro-9a,10-dihydro-9H-indeno[1,2-a]inden-4b-yl)-3-ethyl-5-hydroxy-2,3-dihydro-1H-pyrido[2,1-f][1,2,4]triazine-4,6-dione] | 250 to 375
17 | O=C1c2c(O)c(=O)ccn2N(C23c4cccc(F)c4CC2Cc2c(F)cccc23)CN1CC1CCCCO1 (centres unmarked) [Compound A130] | > 500
18 | CCN1C(=O)c2c(O)c(=O)ccn2N(C23c4ccccc4CC2Cc2c(F)cccc23)C1C (centres unmarked) [Compound A138] | 125 to 250
19 | CCN1C(=O)c2c(O)c(=O)ccn2N(C23c4ccccc4CC2Cc2c(Cl)cccc23)C1C (centres unmarked) [Compound A95] | 125 to 250
20 | CN1CN(C23c4ccccc4CC2Cc2ccc(F)cc23)n2ccc(=O)c(O)c2C1=O (centres unmarked) [Compound A53] | < 125
21 | O=C1c2c(O)c(=O)ccn2N(C23c4ccccc4CC2Cc2c(Cl)cccc23)CN1CC(F)F (centres unmarked) [Compound A105] | < 125
22 | CN1CN(C23c4cc(F)ccc4CC2Cc2ccc(F)cc23)n2ccc(=O)c(O)c2C1=O (centres unmarked) [Compound A20, 1-(3,6-difluoro-9a,10-dihydroindeno[1,2-a]inden-4b(9H)-yl)-5-hydroxy-3-methyl-2,3-dihydro-1H-pyrido[2,1-f][1,2,4]triazine-4,6-dione] | < 125
23 | CC1N(CCF)C(=O)c2c(O)c(=O)ccn2N1C12c3ccccc3CC1Cc1c(F)cccc12 (centres unmarked) [Compound A121] | 125 to 250

Row | SMILES | EC50 [nM]
24 | CCCN1CN(C23c4ccccc4CC2Cc2c3ccc(F)c2F)n2ccc(=O)c(O)c2C1=O (centres unmarked) [Compound A148] | < 125
25 | CN1CN(C23c4ccccc4CC2(C(F)F)Cc2ccccc23)n2ccc(=O)c(O)c2C1=O (centres unmarked) [Compound A63] | 125 to 250
26 | CCN1CN(C23c4cccc(C)c4CC2Cc2c(F)cccc23)n2ccc(=O)c(O)c2C1=O (centres unmarked) [Compound A66] | 125 to 250
27 | CC1N(C)C(=O)c2c(O)c(=O)ccn2N1C12c3ccccc3CC1Cc1ccccc12 (centres unmarked) [Compound A158] | 125 to 250
28 | Cc1cccc2c1CC1Cc3c(F)cccc3C21N1CN(C)C(=O)c2c(O)c(=O)ccn21 (centres unmarked) [Compound A67] | < 125
29 | O=C1c2c(O)c(=O)ccn2N(C23c4ccccc4CC2Cc2c3ccc(F)c2F)CN1CC1CCCCO1 (centres unmarked) [Compound A131] | 375 to 500
30 | CCN1CN(C23c4ccccc4CC2(C)Cc2ccccc23)n2ccc(=O)c(O)c2C1=O (centres unmarked) [Compound A147] | < 125
31 | COCCN1CN(C23c4ccccc4CC2Cc2c3ccc(F)c2F)n2ccc(=O)c(O)c2C1=O (centres unmarked) [Compound A70] | < 125
32 | CCN1CN(C23c4ccccc4CC2Cc2c3ccc(F)c2Cl)n2ccc(=O)c(O)c2C1=O (centres unmarked) [Compound A47] | < 125
33 | O=C1c2c(O)c(=O)ccn2N(C23c4ccccc4CC2Cc2c(Cl)cccc23)CN1C1CCC1 (centres unmarked) [Compound A103] | 250 to 375
34 | CCN1CN(C23c4ccccc4CC2(C)Cc2c3ccc(F)c2F)n2ccc(=O)c(O)c2C1=O (centres unmarked) [Compound A164] | < 125
35 | CN1C(=O)c2c(O)c(=O)ccn2N(C23c4cccc(F)c4CC2Cc2c(F)cccc23)C1CO (centres unmarked) [Compound A59] | < 125
36 | CN1CN(C23c4ccccc4CC2Cc2cc(F)c(F)cc23)n2ccc(=O)c(O)c2C1=O (centres unmarked) [Compound A19, 1-(2,3-difluoro-9a,10-dihydroindeno[1,2-a]inden-4b(9H)-yl)-5-hydroxy-3-methyl-2,3-dihydro-1H-pyrido[2,1-f][1,2,4]triazine-4,6-dione] | < 125
37 | CCN1CN(C23c4ccccc4CC2(OC)Cc2ccccc23)n2ccc(=O)c(O)c2C1=O (centres unmarked) [Compound A152] | < 125
38 | CC(C)CN1C(=O)c2c(O)c(=O)ccn2N(C23c4ccccc4CC2Cc2c(Cl)cccc23)C1C (centres unmarked) [Compound A118] | > 500
39 | O=C1c2c(O)c(=O)ccn2N(C23c4ccccc4CC2Cc2c3ccc(F)c2F)CN1CC1CCOCC1 (centres unmarked) [Compound A15, 1-(1,2-Difluoro-9a,10-dihydro-9H-indeno[1,2-a]inden-4b-yl)-5-hydroxy-3-(tetrahydro-pyran-4-ylmethyl)-2,3-dihydro-1H-pyrido[2,1-f][1,2,4]triazine-4,6-dione] | < 125
40 | CN1CN(C23c4cc(F)c(F)cc4CC2Cc2cc(F)c(F)cc23)n2ccc(=O)c(O)c2C1=O (centres unmarked) [Compound A8, 5-Hydroxy-3-methyl-1-(2,3,6,7-tetrafluoro-9a,10-dihydro-9H-indeno[1,2-a]inden-4b-yl)-2,3-dihydro-1H-pyrido[2,1-f][1,2,4]triazine-4,6-dione] | 375 to 500
41 | CCN1CN(C23c4cccc(F)c4CC2Cc2c(Cl)cccc23)n2ccc(=O)c(O)c2C1=O (centres unmarked) [Compound A151] | < 125
42 | CCN1CN(C23c4ccccc4CC2(CC)Cc2c3ccc(F)c2F)n2ccc(=O)c(O)c2C1=O (centres unmarked) [Compound A56] | < 125
43 | CCN1CN(C23c4ccccc4CC2Cc2c3ccc(Cl)c2Cl)n2ccc(=O)c(O)c2C1=O (centres unmarked) [Compound A161] | < 125
44 | CC1N(C)C(=O)c2c(O)c(=O)ccn2N1C12c3cccc(F)c3CC1Cc1c(F)cccc12 (centres unmarked) [Compound A73] | < 125
